From patent US20260217767A1, “NOVEL A4B7 THIOETHER PEPTIDE DIMER ANTAGONISTS” (Protagonist Therapeutics, Inc., priority 2014, published 2026)
Where two headings read alike, the source gives them in different places. *1 amine or outer side, *2 acyl side, *3 side chain or, on linkers, in order; H or OH if unused. Where a SMILES comes first, the peptide text is derived from it. Bridges are numbered along the chain shown (N, C = ends). Roman numbers before positions name the chains, in order. [ ]: non-standard residue; d: D form. 1Nal = N[C@@H](Cc1cccc2ccccc12)C(=O)O; Diglycolyl = O=C(COCC(=O)[*:2])[*:1]; NMeR = CN[C@@H](CCCNC(=N)N)C(=O)O; Tic = O=C(O)[C@@H]1Cc2ccccc2CN1; β3hE = N[C@@H](CCC(=O)O)CC(=O)O; X1 = O=C(c1ccccc1C[*:2])[*:1]; Pen = CC(C)(S)[C@H](N)C(=O)O

Target: T1, RPMI 8866 cells (Homo sapiens, UniProt P13612+P26010)
T1 sequence (P13612 34-1032): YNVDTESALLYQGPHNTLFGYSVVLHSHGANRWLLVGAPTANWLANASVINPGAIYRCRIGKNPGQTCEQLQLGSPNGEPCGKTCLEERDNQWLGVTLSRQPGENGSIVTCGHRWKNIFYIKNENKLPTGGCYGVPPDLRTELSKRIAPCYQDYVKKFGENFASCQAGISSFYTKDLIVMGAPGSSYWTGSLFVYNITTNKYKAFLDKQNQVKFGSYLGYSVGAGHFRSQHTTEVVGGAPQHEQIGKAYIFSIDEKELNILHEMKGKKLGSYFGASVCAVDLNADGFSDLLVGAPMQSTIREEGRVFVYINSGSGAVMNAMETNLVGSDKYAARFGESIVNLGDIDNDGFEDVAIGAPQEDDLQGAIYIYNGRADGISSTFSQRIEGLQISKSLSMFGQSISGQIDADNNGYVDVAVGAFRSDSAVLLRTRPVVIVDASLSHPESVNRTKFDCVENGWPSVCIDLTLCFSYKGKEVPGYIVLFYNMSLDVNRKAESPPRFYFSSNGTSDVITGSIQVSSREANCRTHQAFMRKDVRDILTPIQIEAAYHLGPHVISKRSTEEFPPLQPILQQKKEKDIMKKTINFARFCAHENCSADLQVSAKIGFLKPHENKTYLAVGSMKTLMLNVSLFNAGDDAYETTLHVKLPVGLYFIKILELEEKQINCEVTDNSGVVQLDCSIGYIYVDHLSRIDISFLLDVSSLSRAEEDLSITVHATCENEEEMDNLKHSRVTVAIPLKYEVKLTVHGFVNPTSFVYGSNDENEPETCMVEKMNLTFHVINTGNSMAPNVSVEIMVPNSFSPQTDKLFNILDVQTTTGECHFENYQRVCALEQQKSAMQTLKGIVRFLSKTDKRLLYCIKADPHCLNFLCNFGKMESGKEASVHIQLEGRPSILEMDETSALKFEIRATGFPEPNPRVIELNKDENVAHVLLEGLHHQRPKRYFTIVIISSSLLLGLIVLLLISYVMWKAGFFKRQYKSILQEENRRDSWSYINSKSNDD
T1 sequence (P26010 20-798): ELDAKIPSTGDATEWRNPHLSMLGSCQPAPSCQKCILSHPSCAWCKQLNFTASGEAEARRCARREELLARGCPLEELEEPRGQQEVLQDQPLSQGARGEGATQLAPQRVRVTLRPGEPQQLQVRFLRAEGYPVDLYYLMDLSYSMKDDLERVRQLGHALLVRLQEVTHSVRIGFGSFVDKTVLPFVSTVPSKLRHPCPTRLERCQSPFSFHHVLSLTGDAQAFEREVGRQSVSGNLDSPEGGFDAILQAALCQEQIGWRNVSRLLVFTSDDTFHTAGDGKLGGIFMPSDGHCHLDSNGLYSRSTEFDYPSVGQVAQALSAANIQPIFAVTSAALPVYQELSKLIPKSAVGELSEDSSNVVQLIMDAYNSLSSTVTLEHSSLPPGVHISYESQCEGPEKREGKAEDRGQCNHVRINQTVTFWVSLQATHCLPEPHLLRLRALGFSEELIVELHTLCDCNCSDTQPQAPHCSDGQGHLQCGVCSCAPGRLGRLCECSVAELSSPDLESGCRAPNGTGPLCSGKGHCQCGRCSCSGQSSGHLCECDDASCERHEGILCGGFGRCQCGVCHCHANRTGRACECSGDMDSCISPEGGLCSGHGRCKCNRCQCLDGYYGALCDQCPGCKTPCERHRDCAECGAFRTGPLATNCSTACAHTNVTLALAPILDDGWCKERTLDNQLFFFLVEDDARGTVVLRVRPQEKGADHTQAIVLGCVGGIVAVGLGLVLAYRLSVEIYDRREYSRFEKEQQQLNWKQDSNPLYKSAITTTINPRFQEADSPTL
Assay: α4β7-MAdCAM Cell Adhesion Assay
Assay type: cell-based
Details: read-out: Cell-Adhesion A4B7
How it was run: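 RPMI 8866 cells (200,000/well) in DMEM with 1 mM MnCl2 and 0.1% BSA were allowed to adhere 30-45 min at 37° C to plates coated with rh MAdCAM-1/Fc (200 ng/well) in presence of serially diluted peptide. After washing, bound cells quantified by MTT, absorbance 570 nm, cell-free background subtracted.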

[1] = thioether peptide dimers, Table 7
[2] = thioether monomer peptides, Table 6

SMILES	IC50 [1]	IC50 [2]
CC(C)C[C@@H]1NC(=O)[C@H]([C@@H](C)O)NC(=O)[C@H](CC(=O)O)NC(=O)[C@H](CO)NC(=O)[C@H](CCCNC(=N)N)N(C)C(=O)c2ccccc2CSC[C@@H](C(=O)N2Cc3ccccc3C[C@H]2C(=O)N[C@H](CCC(=O)O)C(=O)N[C@H](CCCCNC(=O)COCC(=O)NCCCC[C@@H](NC(=O)[C@@H](CCC(=O)O)NC(=O)[C@@H]2Cc3ccccc3CN2C(=O)[C@@H]2CSCc3ccccc3C(=O)N(C)[C@@H](CCCNC(=N)N)C(=O)N[C@@H](CO)C(=O)N[C@@H](CC(=O)O)C(=O)N[C@@H]([C@@H](C)O)C(=O)N[C@@H](CC(C)C)C(=O)N2)C(N)=O)C(N)=O)NC1=O [compound 184] (I: [NMeR]SDTLC[Tic][dE][dK]-NH2 / II: [NMeR]SDTLC[Tic][dE][dK]-NH2; linker I:9-II:9 via Diglycolyl; linker I:N-I:6, II:N-II:6 via X1)	< 25 nM	–
CC(C)C[C@@H]1NC(=O)[C@H]([C@@H](C)O)NC(=O)[C@H](CC(=O)O)NC(=O)[C@H](CO)NC(=O)[C@H](CCCNC(=N)N)N(C)C(=O)c2ccccc2CSC[C@@H](C(=O)N2Cc3ccccc3C[C@H]2C(=O)N[C@H](CCC(=O)O)C(=O)N[C@H](CCCCNC(=O)COCC(=O)NCCCC[C@@H](NC(=O)[C@@H](CCC(=O)O)NC(=O)[C@@H]2Cc3ccccc3CN2C(=O)[C@@H]2CSCc3ccccc3C(=O)N(C)[C@@H](CCCNC(=N)N)C(=O)N[C@@H](CO)C(=O)N[C@@H](CC(=O)O)C(=O)N[C@@H]([C@@H](C)O)C(=O)N[C@@H](CC(C)C)C(=O)N2)C(=O)O)C(=O)O)NC1=O [compound 207] (I: [NMeR]SDTLC[Tic][dE][dK]-OH / II: [NMeR]SDTLC[Tic][dE][dK]-OH; linker I:9-II:9 via Diglycolyl; linker I:N-I:6, II:N-II:6 via X1)	< 25 nM	–
CC(C)C[C@@H]1NC(=O)[C@H]([C@@H](C)O)NC(=O)[C@H](CC(=O)O)NC(=O)[C@H](CO)NC(=O)[C@H](CCCNC(=N)N)N(C)C(=O)c2ccccc2CSC[C@H](C(=O)N[C@@H](Cc2c[nH]c3ccccc23)C(=O)N[C@@H](CCC(=O)O)CC(=O)N[C@H](CCCCNC(=O)COCC(=O)NCCCC[C@@H](NC(=O)C[C@H](CCC(=O)O)NC(=O)[C@H](Cc2c[nH]c3ccccc23)NC(=O)[C@H]2CSCc3ccccc3C(=O)N(C)[C@@H](CCCNC(=N)N)C(=O)N[C@@H](CO)C(=O)N[C@@H](CC(=O)O)C(=O)N[C@@H]([C@@H](C)O)C(=O)N[C@@H](CC(C)C)C(=O)N2)C(N)=O)C(N)=O)NC1=O [compound 156] (I: [NMeR]SDTL[dC]W[β3hE][dK]-NH2 / II: [NMeR]SDTL[dC]W[β3hE][dK]-NH2; linker I:9-II:9 via Diglycolyl; linker I:N-I:6, II:N-II:6 via X1)	25 to 100 nM	–
CC(=O)NCCCC[C@@H](NC(=O)[C@H](CCC(=O)O)NC(=O)[C@H](Cc1c[nH]c2ccccc12)NC(=O)[C@H]1NC(=O)[C@H](CC(C)C)NC(=O)[C@H]([C@@H](C)O)NC(=O)[C@H](CC(=O)O)NC(=O)[C@H](CO)NC(=O)[C@H](CCCNC(=N)N)N(C)C(=O)c2ccccc2CSC1(C)C)C(N)=O [compound 80] (HELM PEPTIDE1{[meR].S.D.T.L.[Pen].W.E.[dK].[am]}|PEPTIDE2{[ac]}|CHEM1{[O=C(c1ccccc1C[*:2])[*:1]]}$PEPTIDE1,PEPTIDE2,9:R3-1:R2|PEPTIDE1,CHEM1,1:R1-1:R1|PEPTIDE1,CHEM1,6:R3-1:R2$$$V2.0)	–	25 to 100 nM
CC(C)C[C@@H]1NC(=O)[C@H]([C@@H](C)O)NC(=O)[C@H](CC(=O)O)NC(=O)[C@H](CO)NC(=O)[C@H](CCCNC(=N)N)N(C)C(=O)c2ccccc2CSC(C)(C)[C@@H](C(=O)N[C@@H](Cc2c[nH]c3ccccc23)C(=O)N[C@H](CCC(=O)O)C(=O)N[C@@H](CN)C(N)=O)NC1=O [compound 94] (HELM PEPTIDE1{[meR].S.D.T.L.[Pen].W.[dE].[NC[C@H](N[*:1])C(=O)[*:2]].[am]}|CHEM1{[O=C(c1ccccc1C[*:2])[*:1]]}$PEPTIDE1,CHEM1,1:R1-1:R1|PEPTIDE1,CHEM1,6:R3-1:R2$$$V2.0)	–	100 to 1000 nM
CC(C)C[C@@H]1NC(=O)[C@H]([C@@H](C)O)NC(=O)[C@H](CC(=O)O)NC(=O)[C@H](CO)NC(=O)[C@H](CCCNC(=N)N)N(C)C(=O)c2ccccc2CSC(C)(C)[C@@H](C(=O)N[C@@H](Cc2cccc3ccccc23)C(=O)N[C@@H](CCC(=O)O)C(=O)N[C@H](CCCCNC(=O)COCC(=O)NCCCC[C@@H](NC(=O)[C@H](CCC(=O)O)NC(=O)[C@H](Cc2cccc3ccccc23)NC(=O)[C@H]2NC(=O)[C@H](CC(C)C)NC(=O)[C@H]([C@@H](C)O)NC(=O)[C@H](CC(=O)O)NC(=O)[C@H](CO)NC(=O)[C@H](CCCNC(=N)N)N(C)C(=O)c3ccccc3CSC2(C)C)C(N)=O)C(N)=O)NC1=O [compound 167] (I: [NMeR]SDTL[Pen][1Nal]E[dK]-NH2 / II: [NMeR]SDTL[Pen][1Nal]E[dK]-NH2; linker I:9-II:9 via Diglycolyl; linker I:N-I:6, II:N-II:6 via X1)	< 25 nM	–
CC(C)C[C@@H]1NC(=O)[C@H]([C@@H](C)O)NC(=O)[C@H](CC(=O)O)NC(=O)[C@H](CO)NC(=O)[C@H](CCCNC(=N)N)N(C)C(=O)c2ccccc2CSC(C)(C)[C@@H](C(=O)N[C@@H](Cc2ccc3ccccc3c2)C(=O)N[C@H](CCC(=O)O)C(N)=O)NC1=O [compound 114] (HELM PEPTIDE1{[meR].S.D.T.L.[Pen].[O=C([C@H](Cc1ccc2ccccc2c1)N[*:1])[*:2]].[dE].[am]}|CHEM1{[O=C(c1ccccc1C[*:2])[*:1]]}$PEPTIDE1,CHEM1,1:R1-1:R1|PEPTIDE1,CHEM1,6:R3-1:R2$$$V2.0)	–	25 to 100 nM
CC(=O)NCCCC[C@@H](NC(=O)[C@H](CCC(=O)O)NC(=O)[C@H](Cc1cccc2ccccc12)NC(=O)[C@H]1NC(=O)[C@H](CC(C)C)NC(=O)[C@H]([C@@H](C)O)NC(=O)[C@H](CC(=O)O)NC(=O)[C@H](CO)NC(=O)[C@H](CCCNC(=N)N)N(C)C(=O)c2ccccc2CSC1(C)C)C(N)=O [compound 89] (HELM PEPTIDE1{[meR].S.D.T.L.[Pen].[O=C([C@H](Cc1cccc2ccccc12)N[*:1])[*:2]].E.[dK].[am]}|PEPTIDE2{[ac]}|CHEM1{[O=C(c1ccccc1C[*:2])[*:1]]}$PEPTIDE1,PEPTIDE2,9:R3-1:R2|PEPTIDE1,CHEM1,1:R1-1:R1|PEPTIDE1,CHEM1,6:R3-1:R2$$$V2.0)	–	100 to 1000 nM
CC(=O)NCCCC[C@@H](NC(=O)[C@@H](CCC(=O)O)NC(=O)[C@H](Cc1c[nH]c2ccccc12)NC(=O)[C@H]1NC(=O)[C@H](CC(C)C)NC(=O)[C@H]([C@@H](C)O)NC(=O)[C@H](CC(=O)O)NC(=O)[C@H](CO)NC(=O)[C@H](CCCNC(=N)N)N(C)C(=O)c2ccccc2CSC1(C)C)C(N)=O [compound 81] (HELM PEPTIDE1{[meR].S.D.T.L.[Pen].W.[dE].[dK].[am]}|PEPTIDE2{[ac]}|CHEM1{[O=C(c1ccccc1C[*:2])[*:1]]}$PEPTIDE1,PEPTIDE2,9:R3-1:R2|PEPTIDE1,CHEM1,1:R1-1:R1|PEPTIDE1,CHEM1,6:R3-1:R2$$$V2.0)	–	25 to 100 nM
